Test results reported in publication PMC9953701 (Biomedicines, 2023).
Where two headings read alike, the source gives them in different places. No end group written: not given here.

Experiments:
[1] = tested on: Bacillus subtilis CCUG 163BT; assay type: cell-based
Experimental: (§1) The three bacterial strains—Escherichia coli ATCC 25922, Pseudomonas aeruginosa ATCC 27853, and Staphylococcus aureus ATCC 29213—as well as the fungal strain Candida albicans ATCC 90028 were provided by the Department of Clinical Bacteriology, Lund University Hospital. Bacillus subtilis CCUG 163B^T and Bacillus cereus CCUG 7414^T were obtained from the Department of Molecular Sciences, Swedish University of Agricultural Sciences.
(§2) Antimicrobial activities of the peptides were evaluated using the two-step microdilution assay, which is designed for testing AMPs without activity-inhibiting components. Briefly, bacteria were grown to the mid-logarithmic phase at 37 °C in 3% (w/v) tryptic soy broth (TSB) (Merck KGaA, Darmstadt, Germany). The microbial culture was washed twice by centrifugation and resuspension in 10 mM Tris buffer (pH 7.4 at 37 °C, adjusted by HCl). The microbial suspension was quantified by OD600, diluted, and transferred to 96-well untreated polystyrene microplates prepared with 2-fold serial dilutions of the peptides using 50,000 bacteria per well (all dilutions in Tris buffer). These were incubated for 5 h at 37 °C, after which 5 µL of 20% (w/v) TSB was added to each well and the microplates were re-incubated for an additional 6–12 h (depending on the growth rate of each organism). All MICs presented are the medians from triplicate experiments performed independently.

[2] = tested on: Bacillus cereus CCUG 7414T; assay type: cell-based
Source text: as §1
(§3) The standard broth microdilution assay was utilized to assess the MIC of designed peptides according to the guidelines of the Clinical and Laboratory Standards Institute (CLSI). Briefly, bacteria were grown in unbuffered Mueller–Hinton Broth (MHB, VWR International, Leuven, Belgium) as well as buffered (containing 50 mM NaHCO3) medium to the mid-logarithmic phase and were quantified by OD600. The bacterial suspension was diluted in the same medium to reach a final density of 1 × 10^6 colony-forming unit per milliliter (CFU/mL). A volume of 50 µL of the bacterial suspension was added to 96-well plates containing 50 µL of MHB in the absence (viability control) or the presence of the peptides at different concentrations (0.625–80 µM). […] MIC values were derived from 3 sets of independent experiments with different bacterial cultures.

[3] = tested on: Bacillus subtilis CCUG 163BT; assay type: cell-based; remark: listed apart in the source
Source text: as §1, §3

[4] = tested on: human red blood cells (RBCs); assay: Hemolysis assay; assay type: cell-based; settings: human RBCs 0.25% in PBS pH 7.4, 80 μM peptide (highest test concentration), 1 h, 37 °C, absorbance 405 nm, relative to 1% Triton X-100
Experimental: The hemolytic assay was conducted by preparing a stock solution of 320 μM peptides in MilliQ water and serially diluted in PBS to give 100 μL test solutions in a 96-well U-bottom microtiter plate (Nunc). Human-type RBCs (red blood cells) were collected from the donor, washed with PBS (pH 7.4) three times, and centrifuged at 1500× g for 60 s. A pellet of RBCs was resuspended to 0.25% (v/v) solution in PBS (pH 7.4). A 100 μL 0.25% suspension of washed RBCs in PBS was dispensed into each well containing serially diluted peptide solutions and incubated at 37 °C for 1 h. The 96-well plate was centrifuged at 150× g for 5 min and aliquots of 100 μL were transferred to a 96-well U-bottomed microtiter plate (Falcon) and the absorbance was measured at 405 nm with an automatic Multiskan Ascent plate reader (Labsystems). The amount of hemolysis was calculated as the percentage of maximum lysis (1% Triton X-100 control) after adjusting for minimum lysis (PBS control).

[5] = molecular target: T1, aureolysin from S. aureus (Staphylococcus aureus, UniProt P81177); assay: Stability in the presence of the protease aureolysin; assay type: in vitro ADME; settings: peptide:enzyme 200:1, 37 °C, RP-HPLC-MS
T1 construct: purchased
T1 sequence (P81177 209-509): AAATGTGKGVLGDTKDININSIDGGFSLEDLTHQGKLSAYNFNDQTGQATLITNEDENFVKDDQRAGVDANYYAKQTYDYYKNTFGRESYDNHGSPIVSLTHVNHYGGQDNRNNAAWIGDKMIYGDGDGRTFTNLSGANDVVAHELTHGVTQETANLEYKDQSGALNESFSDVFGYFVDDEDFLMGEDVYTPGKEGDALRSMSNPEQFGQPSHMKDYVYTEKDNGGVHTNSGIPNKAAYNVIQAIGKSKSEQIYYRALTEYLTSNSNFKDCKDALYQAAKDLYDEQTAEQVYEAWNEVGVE
Experimental: Peptide stability was also assayed in commercially available Gram-positive, S. aureus protease, aureolysin. […] All the samples were then incubated at 37 °C at different incubation times. The reaction was quenched by acidifying with 5 µL of 0.1% formic acid. The samples were analyzed on MS coupled to RP-HPLC.

[6] = tested on: Bacillus cereus CCUG 7414T; assay type: cell-based; settings: B. cereus; TSB, Tryptic Soy broth (rich media, unbuffered)
[7] = tested on: Bacillus subtilis CCUG 163BT; assay type: cell-based; settings: B. subtilis; TSB, Tryptic Soy broth (rich media, unbuffered)
[8] = cited from earlier work
Experimental: One of the major limitations of AMPs for clinical use is their inactivation by both endogenous human proteases and proteases secreted from invading microbes. From our previous studies, it was evident that KR-12 and truncated analogs degrade within 10 min in diluted human serum. More recently, we have shown that the KR-12 cyclic dimer peptides were stable for up to 6 h in diluted human serum but the recovery of LL-37 was very low during the precipitation step of the assay, either due to binding of LL-37 with serum components or rapid degradation. We also compared the stability pro ...

[9] = tested on: Salmonella enterica serovar Typhimurium DA6192 wild type and LL-37-resistant mutants (waaY, phoP); assay: MIC against LL-37-resistant strains in buffer conditions; assay type: cell-based; design: unit not given here; settings: 20 mM sodium phosphate buffer with 0.1% TSB, 16 to 20 h, 37 °C
Experimental: (§4) The LL-37 resistant mutants (DA22427 and DA23307) used in this study were derived from Salmonella enterica serovar Typhimurium DA6192, wild-type and cyclotides-resistant mutants (DA54114 and DA57107) were derived from E. coli MG1655 (wild type) and were kindly provided by Department of Medical Biochemistry and Microbiology, Uppsala University.
(§5) MIC measurements were performed in 20 mM sodium phosphate buffer (PBS), supplemented with 0.1% TSB in 96-well plates (round bottom, Nunc A/S, Roskilde, Denmark) in a total volume of 100 µL. The overnight cultures were diluted 5 × 10^5 CFU/mL in the same medium and 90 µL was transferred into the plates containing 10 µL of 2-fold diluted peptides. […] At least two independent experiments were performed with two technical replicates. In cyclotides, resistant mutant average MIC was reported.

[10] = tested on: E. coli MG1655 wild type and cyclotides-resistant mutants; assay: MIC against cyclotide-resistant strains in buffer conditions; assay type: cell-based, Escherichia coli; design: unit not given here
Experimental: as §4, §5

[11] = tested on: Escherichia coli ATCC 25922; assay type: cell-based; settings: ATCC 25922, 24 h
Source text: as §1, §3

[12] = tested on: Pseudomonas aeruginosa ATCC 27853; assay type: cell-based; settings: ATCC 27853, 24 h
Source text: as §1, §3

[13] = tested on: Bacillus cereus CCUG 7414T; assay type: cell-based; settings: CCUG 7414, 5 h
Experimental: as §1, §2

aureolysin = assay: commercially available Gram-positive, S. aureus protease, aureolysin; settings: 37 °C, up to 24 h
[14] = S. typhimurium phoP LL-37-resistant mutant
[15] = S. typhimurium waaY LL-37-resistant mutant
[16] = E. coli DA54114 cyclotide-resistant mutant, sodium phosphate buffer with 0.1% TSB, average MIC
[17] = E. coli DA57107 cyclotide-resistant mutant, sodium phosphate buffer with 0.1% TSB, average MIC
[18] = E. coli WT (MG1655), 20 mM sodium phosphate buffer with 0.1% TSB, 16 to 20 h, 37 °C

Compound	MIC ([9]; S. typhimurium WT (DA6192))	MIC [9, 14]	MIC [9, 15]	MIC [10, 16]	MIC [10, 17]	MIC [10, 18]	MIC ([1]; CCUG 163, 5 h)	MIC ([2]; CCUG 7414, 24 h)	MIC ([3]; CCUG 163, 24 h)	MIC [11]	MIC [12]	also measured
CC[C@H](C)[C@H](NC(=O)[C@H](CCCCN)NC(=O)[C@H](CCC(=O)O)NC(=O)[C@H](CCCCN)NC(=O)[C@H](CO)NC(=O)[C@H](CCCCN)NC(=O)[C@H](CCCNC(=N)N)NC(=O)[C@H](Cc1ccccc1)NC(=O)[C@H](Cc1ccccc1)NC(=O)[C@H](CC(=O)O)NC(=O)CNC(=O)[C@H](CC(C)C)NC(=O)[C@@H](N)CC(C)C)C(=O)NCC(=O)N[C@@H](CCCCN)C(=O)N[C@@H](CCC(=O)O)C(=O)N[C@@H](Cc1ccccc1)C(=O)N[C@@H](CCCCN)C(=O)N[C@@H](CCCNC(=N)N)C(=O)N[C@H](C(=O)N[C@H](C(=O)N[C@@H](CCC(N)=O)C(=O)N[C@@H](CCCNC(=N)N)C(=O)N[C@H](C(=O)N[C@@H](CCCCN)C(=O)N[C@@H](CC(=O)O)C(=O)N[C@@H](Cc1ccccc1)C(=O)N[C@@H](CC(C)C)C(=O)N[C@@H](CCCNC(=N)N)C(=O)N[C@@H](CC(N)=O)C(=O)N[C@@H](CC(C)C)C(=O)N[C@H](C(=O)N1CCC[C@H]1C(=O)N[C@@H](CCCNC(=N)N)C(=O)N[C@H](C(=O)N[C@@H](CCC(=O)O)C(=O)N[C@@H](CO)C(=O)O)[C@@H](C)O)C(C)C)[C@@H](C)CC)C(C)C)[C@@H](C)CC [LL-37]	–	–	–	–	–	–	–	–	–	–	–	MIC ([1]; B. subtilis, Control: two-step microdilution assay in Tris buffer 10 mM without salts): 1.25 µM; MIC ([2]; B. cereus, MHB, Muller-Hinton broth (rich media, unbuffered)): > 80 µM; MIC ([3]; B. subtilis, MHB, Muller-Hinton broth (rich media, unbuffered)): > 80 µM; hemolysis [4]: 19–23%; time to hydrolysis of the Leu31-Val32 peptide bond by aureolysin [5]: ≤ 5 min; MIC [6]: > 80 µM; MIC [7]: > 80 µM; recovery during the precipitation step of the serum stability assay ([8]; diluted human serum): very low
KRIVKRIKAFLR [KR-12 (Q5K,D9A)]	10	10	10	1	1	1	1.25 µM	> 80 µM	> 80 µM	10 µM	10 µM	–
KRIVQRIKDFLR [KR-12]	20	20	20	1	1	1	5 µM	> 80 µM	> 80 µM	> 20 µM	>20 µM	MIC [13]: 2.5 µM; time within which the peptide degrades in diluted human serum [8]: ≤ 10 min
Kalata B7	–	–	–	–	–	–	–	–	–	–	–	time for which the peptide was stable in aureolysin (stable for up to) [5]: ≥ 24 h
LLGDFFRKSKEKIGKEFKRIVQRIKDFLRNLVPRTES	–	–	–	–	–	–	–	–	–	–	–	cleaved bond (aureolysin): Leu31-Val32, first_seen, within the first 5 min
